Legend:
Type in all cases: cell-based, rat
[1] = tested on: dental follicle cells (DFCs; non-stem cells); assay: 4-HC treatment of dental follicle cells (non-stem cells); details: same 4-HC treatment protocol applied to DFCs
[2] = tested on: Abcb1, Prom1, Notch 1, and CD34; assay: Stem cell marker expression in 4-HC surviving cells by RT-PCR and western blotting; details: 4-HC surviving cells compared to the original population; on the average
Experimental: We also tested an ALDH substrate, 4-hydroperoxycyclophosphamide (4-HC), for elimination of non-stem cells in culture. DFSCs were cultured as described above and then treated with 4-HC at the concentrations of 5, 10, 15, 20 and 25 μM in α-MEM medium containing 20% FBS for 48 hours at 37° C. The majority of the cells were killed at a 4-HC concentration greater than 15 μM. The surviving cells then were collected and subjected to cell proliferation, differentiation, and gene expression assays as described above for evaluation of stem cell properties. Putative stem cells surviving from a 4-HC treatment expressed a high level of multiple stem cell markers, including Abcb1, Prom1, Notch 1, and CD34, as determined by RT-PCR and western blotting. On the average, about a 2 to 4-fold increase in expression of these markers was detected in the 4-HC surviving cells as compared to the original population.

DFSCs [3] = assay: 4-HC treatment of DFSCs for elimination of non-stem cells; details: 5-25 μM tested, 48 hours at 37° C., α-MEM with 20% FBS
Experimental: (§1) Establishment of cell cultures from rat dental follicle: Dental follicles (DF) were surgically removed from the first mandibular molars of Sprague Dawley rat pups at days 5-7 postnatally, and the isolated DF cells then suspended in MEM medium containing 10% newborn calf serum (NCS), 1 mM sodium pyruvate and antibiotics as previously described (Wise et al., 1992). Next, 5 ml of the cell suspension was transferred into a T-25 cell culture flask and incubated overnight to allow the cells to adhere. […]
We also tested an ALDH substrate, 4-hydroperoxycyclophosphamide (4-HC), for elimination of non-stem cells in culture. […] Putative stem cells surviving from a 4-HC treatment expressed a high level of multiple stem cell markers, including Abcb1, Prom1, Notch 1, and CD34, as determined by RT-PCR and western blotting. On the average, about a 2 to 4-fold increase in expression of these markers was detected in the 4-HC surviving cells as compared to the original population.

DFSCs [4] = assay: Proliferation of cells surviving 4-HC treatment (flow cytometry analysis)
DFSCs [5] = assay: Doxorubicin treatment of DFSCs, count of viable cells (survival rate); details: DOX 1 μM, incubation increased from 2 to 4 to 6 hours, compared to control without DOX; FIG. 2
Experimental: as §1
(§2) In another experiment to determine to enrich the populations of stem cells, DFSCs were treated with doxorubicin (DOX), a substrate of BCRP, at concentrations of 0.5, 1 or 2 μM for 1, 2, 4 and 6 hrs. […] The number of viable cells was counted in 5 to 10 randomly selected spots (1 mm^2 each) for calculation of the survival rate as the ratio of treatment/control. […]

DFSCs [6] = assay: Adipogenesis differentiation of cells surviving DOX, Oil Red O staining; details: cells that survived DOX for 4 hours; untreated control DFSCs formed only a few adipocytes
Experimental: To determine the differentiation capabilities of the putative stem cells, DFSCs were subjected to various differentiation procedures. For osteogenesis, cells were cultured for 2 weeks in medium consisting of DMEM-LG, 10% FBS, 50 μg/ml ascorbate-2 phosphate, 10^−8 M dexamethasone, and 10 mM β-glycerophosphate […] as previously described, followed by von Kossa and Alizarin Red staining to assess for mineral deposition (as described in Hung et al., 2002). For adipogenesis, DFSCs were cultured for 2 weeks in medium consisting of DMEM-LG, 10% FBS (Invitrogen Corporation, Carlsbad, Calif., USA), 50 μg/ml ascorbate-2 phosphate (Sigma-Aldrich), 10^−7 M dexamethasone, and 50 μg/ml indomethacin, with a medium change every 3 days (Hung et al., 2002). The cells then were stained with Oil red O to evaluate adipogenesis.
as §2, with “hrs. The cells were incubated at 37° C. for the designated duration.” for “hrs.”

Row | SMILES | survival of cells [1] | increase in expression of stem cell markers [2] [fold] | 4-HC concentration at which the majority of the cells were killed (DFSCs [3]) | proliferation rate of putative stem cells surviving 4-HC (DFSCs [4]; flow cytometry, compared to original cell population not subjected to 4-HC) | effect of 4-HC treatment on proliferation of the cells (DFSCs [4]; surviving cells) | number of surviving cells (DFSCs [5]) | adipocyte formation of surviving cells in adipogenesis induction medium (DFSCs [6])
1 | O=P1(N(CCCl)CCCl)NC(OO)CCO1 (stereo not shown) [4-HC, 4-hydroperoxycyclophosphamide] | none of them survived | 2 to 4 | greater than 15 μM | higher proliferation rate | did not adversely affect |  | 
2 | COc1cccc2c1C(=O)c1c(O)c3c(c(O)c1C2=O)C[C@@](O)(C(=O)CO)C[C@@H]3O[C@H]1C[C@H](N)[C@H](O)[C@H](C)O1 [DOX, doxorubicin] |  |  |  |  |  | decreasing | majority of the cells forming Oil Red O positive adipocytes

Source: US9279105B2, “Enrichment of stem cells from adult tissues” (Board of Supervisors of Louisiana State University And …, priority 2009, dated 2016)
